Values after ≈ are worked out from the molar mass of the structure shown.
Assays:
[1] = Cytotoxicity, microtetrazolium test (MTT); conditions: dog, MDCK cells, CC50 (MDCK), mean ±SD

Structure (SMILES)	CC50 at 48 h [1]	melting point
CCOC(=O)c1c(N(Cc2ccccc2Cl)C(C)=O)sc2c(Cl)c(O)ccc12 [Example 9, Ethyl 2-[acetyl(2-chlorobenzyl)amino]-7-chloro-6-hydroxy-1-benzothiophene-3-carboxylate]	8.3 ± 0.3 µg/mL (≈ 18.9 µM)	174 to 178 °C
COC(=O)c1c(N(Cc2cccc(F)c2)C(C)=O)sc2c(Cl)c(O)ccc12 [Example 25, Methyl 2-[acetyl(3-fluorobenzyl)amino]-7-chloro-6-hydroxy-1-benzothiophene-3-carboxylate]	25.5 ± 2.7 µg/mL (≈ 62.5 µM)	152 to 155 °C
CC(=O)N(Cc1ccccc1)c1sc2c(Cl)c(O)ccc2c1C(=O)N1CCCCC1 [Example 82, N-benzyl-N-[7-chloro-6-hydroxy-3-(piperidin-1-ylcarbonyl)-1-benzothien-2-yl]acetamide]	16.3 ± 0.8 µg/mL (≈ 36.8 µM)	95 to 100 °C
COC(=O)c1c(N(Cc2ccc(F)cc2)C(C)=O)sc2c(Cl)c(O)ccc12 [Example 27, Methyl 2-[acetyl(4-fluorobenzyl)amino]-7-chloro-6-hydroxy-1-benzothiophene-3-carboxylate]	39.8 ± 2.5 µg/mL (≈ 97.6 µM)	233 to 235 °C
COC(=O)c1c(N(Cc2ccc(F)cc2F)C(C)=O)sc2cc(O)ccc12 [Example 30, Methyl 2-[acetyl(2,4-difluorobenzyl)amino]-6-hydroxy-1-benzothiophene-3-carboxylate]	> 300 µg/mL	178 to 180 °C
COC(=O)c1c(N(CCc2ccccc2F)C(C)=O)sc2c(CN(C)C)c(O)ccc12 [Example 56, Methyl 2-{acetyl[2-(2-fluorophenyl)ethyl]amino}-7-[(dimethylamino)methyl]-6-hydroxy-1-benzothiophene-3-carboxylate]	> 300 µg/mL	114 to 120 °C
COC(=O)c1c(N(C(C)=O)C(C)c2ccccc2)sc2c(Cl)c(O)ccc12 (stereo not shown) [Example 37, Methyl 2-[acetyl(1-phenylethyl)amino]-7-chloro-6-hydroxy-1-benzothiophene-3-carboxylate]	24.5 ± 2.2 µg/mL (≈ 60.7 µM)	195 to 200 °C
COC(=O)c1c(N(Cc2ccccc2C)C(C)=O)sc2c(CN(C)C)c(O)ccc12 [Example 58]	> 300 µg/mL	155 to 160 °C
COC(=O)c1c(N(Cc2ccc(C(F)(F)F)cc2)C(C)=O)sc2c(Cl)c(O)ccc12 [Example 21, Methyl 2-[acetyl(4-trifluoromethylbenzyl)amino]-7-chloro-6-hydroxy-1-benzothiophene-3-carboxylate]	5.6 ± 0.2 µg/mL (≈ 12.2 µM)	176 to 180 °C
COC(=O)c1c(N(CCc2ccccc2)C(C)=O)sc2cc(O)ccc12 [Example 36, Methyl 2-[acetyl(2-phenylethyl)amino]-6-hydroxy-1-benzothiophene-3-carboxylate]	> 300 µg/mL	190 to 194 °C
CC(=O)N(Cc1ccccc1)c1sc2cc(O)ccc2c1C(N)=O [Example 81, 2-[acetyl(benzyl)amino]-6-hydroxy-1-benzothiophene-3-carboxamide]	251 ± 19 µg/mL (≈ 737 µM)	110 to 115 °C
CNC(=O)c1c(N(Cc2ccccc2F)C(C)=O)sc2c(CN(C)C)c(O)ccc12 [Example 84, 2-[acetyl(2-fluorobenzyl)amino]-7-[(dimethylamino)methyl]-6-hydroxy-N-methyl-1-benzothiophene-3-carboxamide]	> 300 µg/mL	122 to 126 °C
COC(=O)c1c(N(Cc2ccccc2C#N)C(C)=O)sc2c(CN(C)C)c(O)ccc12 [Example 60]	> 300 µg/mL	178 to 182 °C
CC(=O)N(Cc1ccccc1)c1sc2c(Cl)c(O)ccc2c1C(=O)OC(C)C [Example 7, Isopropyl 2-[acetyl(benzyl)amino]-7-chloro-6-hydroxy-1-benzothiophene-3-carboxylate]	2.2 ± 0.3 µg/mL (≈ 5.26 µM)	164 to 168 °C
CCNC(=O)c1c(N(Cc2ccccc2)C(C)=O)sc2cc(O)ccc12 [Example 79, 2-[acetyl(benzyl)amino]-6-hydroxy-N-ethyl-1-benzothiophene-3-carboxamide]	250 ± 21 µg/mL (≈ 679 µM)	138 to 142 °C
CNC(=O)c1c(N(Cc2ccc(F)cc2F)C(C)=O)sc2c(Cl)c(O)ccc12 [Example 78, 2-[acetyl(2,4-difluorobenzyl)amino]-7-chloro-6-hydroxy-N-methyl-1-benzothiophene-3-carboxamide]	68 ± 5 µg/mL (≈ 160 µM)	125 to 130 °C
COC(=O)c1c(N(Cc2ccc3ccccc3c2)C(C)=O)sc2c(Cl)c(O)ccc12 [Example 33, Methyl 2-[acetyl(2-naphthylmethyl)amino]-7-chloro-6-hydroxy-1-benzothiophene-3-carboxylate]	3.7 ± 0.4 µg/mL (≈ 8.41 µM)	185 to 190 °C
CNC(=O)c1c(N(Cc2ccc(F)cc2)C(C)=O)sc2c(Cl)c(O)ccc12 [Example 77]	32.2 ± 2.4 µg/mL (≈ 79.1 µM)	192 to 195 °C
CC(=O)N(Cc1ccccc1)c1sc2cc(O)ccc2c1C(=O)OC(C)C [Example 8, Isopropyl 2-[acetyl(benzyl)amino]-6-hydroxy-1-benzothiophene-3-carboxylate]	13.9 ± 1.1 µg/mL (≈ 36.2 µM)	126 to 130 °C

Structure (SMILES)	CC50 at 48 h [1]	melting point
CC(=O)N(Cc1ccc(F)cc1F)c1sc2c(Cl)c(O)ccc2c1C(=O)O [Example 71, 2-[acetyl(2,4-difluorobenzyl)amino]-7-chloro-6-hydroxy-1-benzothiophene-3-carboxylic acid]	210 ± 16 µg/mL (≈ 510 µM)	238 to 242 °C
COC(=O)c1c(N(Cc2cccc(F)c2)C(C)=O)sc2c(CN(C)C)c(O)ccc12 [Example 53]	> 300 µg/mL	142 to 144 °C
COC(=O)c1c(N(Cc2cccc3ccccc23)C(C)=O)sc2cc(O)ccc12 [Example 32, Methyl 2-[acetyl(1-naphthylmethyl)amino]-6-hydroxy-1-benzothiophene-3-carboxylate]	> 300 µg/mL	198 to 202 °C
CCCNC(=O)c1c(N(Cc2ccccc2)C(C)=O)sc2cc(O)ccc12 [Example 80, 2-[acetyl(benzyl)amino]-6-hydroxy-N-propyl-1-benzothiophene-3-carboxamide]	240 ± 16 µg/mL (≈ 627 µM)	85 to 90 °C
CCOC(=O)c1c(N(Cc2ccccc2)C(C)=O)sc2cc(O)ccc12 [Example 2, Ethyl 2-[acetyl(benzyl)amino]-6-hydroxy-1-benzothiophene-3-carboxylate]	11.7 ± 0.6 µg/mL (≈ 31.7 µM)	146 to 148 °C
COC(=O)c1c(N(C(C)=O)C(C)c2ccccc2)sc2cc(O)ccc12 (stereo not shown) [Example 38, Methyl 2-[acetyl(1-phenylethyl)amino]-6-hydroxy-1-benzothiophene-3-carboxylate]	30 µg/mL (≈ 81.2 µM)	152 to 157 °C
COC(=O)c1c(N(Cc2ccc(C(C)C)cc2)C(C)=O)sc2c(Cl)c(O)ccc12 [Example 41, Methyl 2-[acetyl(4-isopropylbenzyl)amino]-7-chloro-6-hydroxy-1-benzothiophene-3-carboxylate]	5 ± 0.5 µg/mL (≈ 11.6 µM)	183 to 186 °C
COC(=O)c1c(N(Cc2ccc(F)cc2)C(C)=O)sc2cc(O)ccc12 [Example 28, Methyl 2-[acetyl(4-fluorobenzyl)amino]-6-hydroxy-1-benzothiophene-3-carboxylate]	240 ± 19 µg/mL (≈ 643 µM)	198 to 202 °C
CC(=O)N(Cc1ccccc1)c1sc2c(Cl)c(O)ccc2c1C(=O)OC(C)(C)C [Example 5, Tert-butyl 2-[acetyl(benzyl)amino]-7-chloro-6-hydroxy-1-benzothiophene-3-carboxylate]	4.1 ± 0.2 µg/mL (≈ 9.49 µM)	200 to 205 °C
CC(=O)N(Cc1ccccc1Cl)c1sc2c(Cl)c(O)ccc2c1C(=O)O [Example 68, 2-[acetyl(2-chlorobenzyl)amino]-7-chloro-6-hydroxy-1-benzothiophene-3-carboxylic acid]	65 ± 4 µg/mL (≈ 158 µM)	265 to 270 °C
COC(=O)c1c(N(Cc2ccccc2Cl)C(C)=O)sc2cc(O)ccc12 [Example 16, Methyl 2-[acetyl(2-chlorobenzyl)amino]-6-hydroxy-1-benzothiophene-3-carboxylate]	21 µg/mL (≈ 53.9 µM)	220 to 224 °C
COC(=O)c1c(N(Cc2ccccc2Cl)C(C)=O)sc2c(CN(C)C)c(O)ccc12 [Example 51]	> 300 µg/mL	132 to 136 °C
COC(=O)c1c(N(Cc2ccc(C(C)C)cc2)C(C)=O)sc2cc(O)ccc12 [Example 42, Methyl 2-[acetyl(4-isopropylbenzyl)amino]-6-hydroxy-1-benzothiophene-3-carboxylate]	10 µg/mL (≈ 25.2 µM)	141 to 145 °C
COC(=O)c1c(N(Cc2ccccc2F)C(C)=O)sc2cc(O)ccc12 [Example 24, Methyl 2-[acetyl(2-fluorobenzyl)amino]-6-hydroxy-1-benzothiophene-3-carboxylate]	> 300 µg/mL	165 to 167 °C
CC(=O)N(Cc1ccccc1)c1sc2c(Cl)c(O)ccc2c1C(=O)O [Example 66, 2-[acetyl(benzyl)amino]-7-chloro-6-hydroxy-1-benzothiophene-3-carboxylic acid]	> 300 µg/mL	240 to 245 °C
CNC(=O)c1c(N(Cc2ccccc2F)C(C)=O)sc2c(Cl)c(O)ccc12 [Example 75, 2-[acetyl(2-fluorobenzyl)amino]-7-chloro-6-hydroxy-N-methyl-1-benzothiophene-3-carboxamide]	28 ± 4 µg/mL (≈ 68.8 µM)	108 to 112 °C
COC(=O)c1c(N(Cc2ccccc2C(F)(F)F)C(C)=O)sc2c(CN(C)C)c(O)ccc12 [Example 59]	> 300 µg/mL	184 to 188 °C
CNC(=O)c1c(N(Cc2ccccc2F)C(C)=O)sc2cc(O)ccc12 [Example 76, 2-[acetyl(2-fluorobenzyl)amino]-6-hydroxy-N-methyl-1-benzothiophene-3-carboxamide]	> 300 µg/mL	105 to 112 °C
CCOC(=O)c1c(N(Cc2ccccc2)C(C)=O)sc2c(Cl)c(O)ccc12 [Example 1, Ethyl 2-[acetyl(benzyl)amino]-7-chloro-6-hydroxy-1-benzothiophene-3-carboxylate]	> 300 µg/mL	151 to 155 °C

Source: US20240174629A1 (OTCPHARM JSC, priority 2021, published 2024)
